# Measurements: US9546152B2 (MERCK SHARP & DOHME CORP., priority 2012, dated 2017)
# Legend:
# human orexin-2 receptor [1] = target: T1, human orexin-2 receptor (Homo sapiens (Human), UniProt O43614); assay: radioligand binding assay, orexin-2 receptor; settings: membranes prepared from CHO cells expressing the OX2 receptor; read-out: hOX2R BIND hKi
# Procedure: (§1) In a typical experiment the OX1 and OX2 receptor antagonistic activity of the compounds of the present invention was determined in accordance with the following experimental method. For intracellular calcium measurements, Chinese hamster ovary (CHO) cells expressing the rat orexin-1 receptor or the human orexin-2 receptor, are grown in Iscove's modified DMEM containing 2 mM L-glutamine, […], 1% hypoxanthine-thymidine supplement, 100 U/ml penicillin, 100 μg/ml streptomycin and 10% heat-inactivated fetal calf serum (FCS). The cells are seeded at 20,000 cells/well into Becton-Dickinson black 384-well clear bottom sterile plates coated with poly-D-lysine. All reagents were from GIBCO-Invitrogen Corp. The seeded plates are incubated overnight at 37° C. and 5% CO2. Ala-6,12 human orexin-A as the agonist is prepared as a 1 mM stock solution in 1% bovine serum albumin (BSA) and diluted in assay buffer (HBSS containing 20 mM HEPES, 0.1% BSA and 2.5 mM probenecid, pH7.4) for use in the assay at a final concentration of 70 pM. Test compounds are prepared as 10 mM stock solution in DMSO, then diluted in 384-well plates, first in DMSO, then assay buffer. On the day of the assay, cells are washed 3 times with 100 μl assay buffer and then incubated for 60 min (37° C., 5% CO2) in 60 μl assay buffer containing 1 μM Fluo-4AM ester, 0.02% pluronic acid, and 1% BSA. The dye loading solution is then aspirated and cells are washed 3 times with 100 μl assay buffer. 30 μl of that same buffer is left in each well. Within the Fluorescent Imaging Plate Reader (FLIPR, Molecular Devices), test compounds are added to the plate in a volume of 25 μl, incubated for 5 min and finally 25 μl of agonist is added. Fluorescence is measured for each well at 1 second intervals for 5 minutes and the height of each fluorescence peak is compared to the height of the fluorescence peak induced by 70 pM Ala-6,12 orexin-A with buffer in place of antagonist. […] Alternatively, compound potency can be assessed by a radioligand binding assay (described in Bergman et. al. Bioorg. Med. Chem. Lett. 2008, 18, 1425-1430) in which the inhibition constant (Ki) is determined in membranes prepared from CHO cells expressing either the OX1 or OX2 receptor. The intrinsic orexin receptor antagonist activity of a compound which may be used in the present invention may be determined by these assays.
# human orexin-2 receptor [2] = target: T1, human orexin-2 receptor; assay: FLIPR Ca2+ Flux Assay, orexin-2 receptor; assay type: cell-based; settings: CHO cells expressing the human orexin-2 receptor; agonist 70 pM Ala-6,12 human orexin-A; read-out: hOX2R FLIPR IC50
# Procedure: as §1
# rat orexin-1 receptor = rat orexin-1 receptor (Rattus norvegicus (Rat), UniProt P56718); assay: FLIPR Ca2+ Flux Assay, orexin-1 receptor; assay type: cell-based; settings: CHO cells expressing the rat orexin-1 receptor; agonist 70 pM Ala-6,12 human orexin-A; read-out: hOX1R FLIPR IC50
# Sequence of rat orexin-1 receptor (P56718 whole entry): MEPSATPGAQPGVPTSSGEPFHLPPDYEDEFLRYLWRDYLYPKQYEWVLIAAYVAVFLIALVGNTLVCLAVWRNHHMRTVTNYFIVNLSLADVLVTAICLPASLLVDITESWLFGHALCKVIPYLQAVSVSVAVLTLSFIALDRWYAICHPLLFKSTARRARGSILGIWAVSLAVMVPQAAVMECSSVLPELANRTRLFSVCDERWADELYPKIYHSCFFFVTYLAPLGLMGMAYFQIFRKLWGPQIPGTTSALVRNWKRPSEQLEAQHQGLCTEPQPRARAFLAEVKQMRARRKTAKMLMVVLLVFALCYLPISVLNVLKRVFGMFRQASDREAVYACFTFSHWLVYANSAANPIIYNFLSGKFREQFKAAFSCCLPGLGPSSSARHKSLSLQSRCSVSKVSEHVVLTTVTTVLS
# Procedure: as §1
# T1 sequence (O43614 whole entry): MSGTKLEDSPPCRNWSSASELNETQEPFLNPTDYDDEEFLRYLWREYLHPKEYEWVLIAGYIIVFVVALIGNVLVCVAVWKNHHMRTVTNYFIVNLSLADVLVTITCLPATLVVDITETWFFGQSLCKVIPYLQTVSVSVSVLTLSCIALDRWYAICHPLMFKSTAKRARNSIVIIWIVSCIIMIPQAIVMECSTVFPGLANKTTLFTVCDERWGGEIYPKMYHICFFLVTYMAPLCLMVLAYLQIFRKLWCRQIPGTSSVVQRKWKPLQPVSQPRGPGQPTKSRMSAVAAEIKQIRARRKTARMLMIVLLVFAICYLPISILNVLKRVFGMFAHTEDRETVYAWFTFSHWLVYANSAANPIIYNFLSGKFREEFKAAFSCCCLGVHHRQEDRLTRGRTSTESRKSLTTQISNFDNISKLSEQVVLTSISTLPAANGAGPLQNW
SMILES,Ki (human orexin-2 receptor [1]) [nM],IC50 (human orexin-2 receptor [2]) [nM],IC50 (rat orexin-1 receptor) [nM]
"Cc1cccc(-n2nccn2)c1C(=O)N1C[C@H](Oc2nccc(C#N)c2C)CC[C@H]1C [Example 15, 3-methyl-2-{[(3R,6R)-6-methyl-1-{[2-methyl-6-(2H-1,2,3-triazol-2-yl)phenyl]carbonyl}piperidin-3-yl]oxy}pyridine-4-carbonitrile]",0.2,12,693
"Cc1c(C#N)ccnc1O[C@@H]1CC[C@@H](C)N(C(=O)c2cnc(Cl)cc2-n2nccn2)C1 [Example 67, 2-{[(3R,6R)-1-{[6-chloro-4-(2H-1,2,3-triazol-2-yl)pyridin-3-yl]carbonyl}-6-methylpiperidin-3-yl]oxy}-3-methylpyridine-4-carbonitrile]",4.7,35,> 10000
"Cc1noc(-c2ccccc2C(=O)N2C[C@H](Oc3nccc(C#N)c3C)CC[C@H]2C)n1 [Example 58, 3-methyl-2-{[(3R,6R)-6-methyl-1-{[2-(3-methyl-1,2,4-oxadiazol-5-yl)phenyl]carbonyl}piperidin-3-yl]oxy}pyridine-4-carbonitrile]",0.5,12,733
"Cc1c(C#N)ccnc1O[C@@H]1CC[C@@H](C)N(C(=O)c2sccc2-c2cscn2)C1 [Example 38, 3-methyl-2-{[(3R,6R)-6-methyl-1-{[3-(1,3-thiazol-4-yl)thiophen-2-yl]carbonyl}piperidin-3-yl]oxy}pyridine-4-carbonitrile]",0.9,11,1640
"Cc1ccc(-n2nccn2)c(C(=O)N2C[C@H](Oc3nccc(C#N)c3C)CC[C@H]2C)c1 [Example 6, 3-methyl-2-{[(3R,6R)-6-methyl-1-{[5-methyl-2-(2H-1,2,3-triazol-2-yl)phenyl]carbonyl}piperidin-3-yl]oxy}pyridine-4-carbonitrile]",0.6,7,292
"Cc1c(C#N)ccnc1O[C@@H]1CC[C@@H](C)N(C(=O)c2ccccc2-n2nccn2)C1 [Example 1, 3-Methyl-2-{[(3R,6R)-6-methyl-1-{[2-(2H-1,2,3-triazol-2-yl)phenyl]carbonyl}piperidin-3-yl]oxy}pyridine-4-carbonitrile]",0.4,8,996
"Cc1ccc(C(=O)N2C[C@H](Oc3nccc(C#N)c3C)CC[C@H]2C)c(C2CC2)c1 [Example 51, 2-({(3R,6R)-1-[(2-cyclopropyl-4-methylphenyl)carbonyl]-6-methylpiperidin-3-yl}oxy)-3-methylpyridine-4-carbonitrile]",0.6,21,2100
"Cc1c(C#N)ccnc1O[C@@H]1CC[C@@H](C)N(C(=O)c2ccc(OCF)nc2-n2nccn2)C1 [Example 88, 2-{[(3R,6R)-1-{[6-(Fluoromethoxy)-2-(2H-1,2,3-triazol-2-yl)pyridin-3-yl]carbonyl}-6-methylpiperidin-3-yl]oxy}-3-methylpyridine-4-carbonitrile]",9.2,58,> 10000
"COc1c(C#N)ccnc1O[C@@H]1CC[C@@H](C)N(C(=O)c2ccccc2-n2nccn2)C1 [Example 96, 3-Methoxy-2-{[(3R,6R)-6-methyl-1-{[2-(2H-1,2,3-triazol-2-yl)phenyl]carbonyl}piperidin-3-yl]oxy}pyridine-4-carbonitrile]",0.3,9,1260
"Cc1c(C#N)ccnc1O[C@@H]1CC[C@@H](C)N(C(=O)c2cnccc2-n2nccn2)C1 [Example 10, 3-methyl-2-{[(3R,6R)-6-methyl-1-{[4-(2H-1,2,3-triazol-2-yl)pyridin-3-yl]carbonyl}piperidin-3-yl]oxy}pyridine-4-carbonitrile]",8.1,55,7070
"Cc1nc(-c2ccccc2C(=O)N2C[C@H](Oc3nccc(C#N)c3C)CC[C@H]2C)no1 [Example 42, 3-methyl-2-{[(3R,6R)-6-methyl-1-{[2-(5-methyl-1,2,4-oxadiazol-3-yl)phenyl]carbonyl}piperidin-3-yl]oxy}pyridine-4-carbonitrile]",1,12,776
"COc1c(C#N)ccnc1O[C@@H]1CC[C@@H](C)N(C(=O)c2cc(F)ccc2-c2ncccn2)C1 [Example 111, 2-({(3R,6R)-1-[(5-fluoro-2-pyrimidin-2-ylphenyl)carbonyl]-6-methylpiperidin-3-yl}oxy)-3-methoxypyridine-4-carbonitrile]",0.3,18,945
"Cc1c(C#N)ccnc1O[C@@H]1CC[C@@H](C)N(C(=O)c2sccc2-c2ncccn2)C1 [Example 75, 3-methyl-2-({(3R,6R)-6-methyl-1-[(3-pyrimidin-2-ylthiophen-2-yl)carbonyl]piperidin-3-yl}oxy)pyridine-4-carbonitrile]",0.8,15,1400
"Cc1c(C#N)ccnc1O[C@@H]1CC[C@@H](C)N(C(=O)c2cc(C#N)ccc2-n2nccn2)C1 [Example 71, 2-{[(3R,6R)-1-{[5-cyano-2-(2H-1,2,3-triazol-2-yl)phenyl]carbonyl}-6-methylpiperidin-3-yl]oxy}-3-methylpyridine-4-carbonitrile]",5.5,40,1850
"COc1ccc(C(=O)N2C[C@H](Oc3nccc(C#N)c3OC)CC[C@H]2C)c(-n2nccn2)n1 [Example 104, 3-methoxy-2-{[(3R,6R)-1-{[6-methoxy-2-(2H-1,2,3-triazol-2-yl)pyridin-3-yl]carbonyl}-6-methylpiperidin-3-yl]oxy}pyridine-4-carbonitrile]",2,29,> 10000
"COc1ccc(C(=O)N2C[C@H](Oc3nccc(C#N)c3C)CC[C@H]2C)c(-c2ccccn2)n1 [Example 83, 2-({(3R,6R)-1-[(6-methoxy-2,2′-bypyridin-3-yl)carbonyl]-6-methylpiperidin-3-yl}oxy)-3-methylpyridine-4-carbonitrile]",0.84,64.6,10000
"COc1c(C#N)ccnc1O[C@@H]1CC[C@@H](C)N(C(=O)c2cccc(C)c2-n2nccn2)C1 [Example 101, 3-methoxy-2-{[(3R,6R)-6-methyl-1-{[3-methyl-2-(2H-1,2,3-triazol-2-yl)phenyl]carbonyl}piperidin-3-yl]oxy}pyridine-4-carbonitrile]",0.3,21,957
"Cc1c(C#N)ccnc1O[C@@H]1CC[C@@H](C)N(C(=O)c2cccnc2-c2ccccc2)C1 [Example 60, 3-methyl-2-({(3R,6R)-6-methyl-1-[(2-phenylpyridin-3-yl)carbonyl]piperidin-3-yl}oxy)pyridine-4-carbonitrile]",2.6,26,4670
"Cc1c(C#N)ccnc1O[C@@H]1CC[C@@H](C)N(C(=O)c2cn(C)nc2-c2nccs2)C1 [Example 46, 3-methyl-2-{[(3R,6R)-6-methyl-1-{[1-methyl-3-(1,3-thiazol-2-yl)-1H-pyrazol-4-yl]carbonyl}piperidin-3-yl]oxy}pyridine-4-carbonitrile]",14.2,111,> 10000
"Cc1c(C#N)ccnc1O[C@@H]1CC[C@@H](C)N(C(=O)c2ccc(Cl)nc2-n2nccn2)C1 [Example 72, 2-{[(3R,6R)-1-{[6-chloro-2-(2H-1,2,3-triazol-2-yl)pyridin-3-yl]carbonyl}-6-methylpiperidin-3-yl]oxy}-3-methylpyridine-4-carbonitrile]",3.5,75,> 10000
"Cc1c(C#N)ccnc1O[C@@H]1CC[C@@H](C)N(C(=O)c2ccc(OCF)cc2-n2nccn2)C1 [Example 64, 2-{[(3R,6R)-1-{[4-(fluoromethoxy)-2-(2H-1,2,3-triazol-2-yl)phenyl]carbonyl}-6-methylpiperidin-3-yl]oxy}-3-methylpyridine-4-carbonitrile]",3.3,35,4490
"Cc1c(C#N)ccnc1O[C@@H]1CC[C@@H](C)N(C(=O)c2c(F)cccc2-n2nccn2)C1 [Example 11, 2-{[(3R,6R)-1-{[2-fluoro-6-(2H-1,2,3-triazol-2-yl)phenyl]carbonyl}-6-methylpiperidin-3-yl]oxy}-3-methylpyridine-4-carbonitrile]",0.3,10,611
